Laboratory results as given in patent publication US8980843B2, “Leptin agonist and methods of use” (Temple University—of the Commonwealth System of Higher …, priority 2009, dated 2015).
Entries after “also recorded” stand apart in the source; their conditions may differ. Non-standard residues stand in square brackets, D forms with d. Residues, ends and D or L forms follow the SMILES beside them. *: point of attachment. αGalNAc = CC(=O)N[C@@H]1[C@@H](O)[C@@H](O)[C@@H](CO)O[C@@H]1*; Tyr(3,5-I2) = N[C@@H](Cc1cc(I)c(O)c(I)c1)C(=O)O; Acp = not defined here; Ahx = NCCCCCC(=O)O

How the values were obtained:
[1] = system: ObR-positive LN229 glioblastoma cells; experiment: Cell proliferation assay, ObR-positive LN229 glioblastoma cells; format: cell-based; conditions: for Selectivity (EC/IC): LN229 cells
Experimental: (§1) LN18 and LN229 cells naturally expressing ObR were purchased from ATCC and were cultured in DMEM low glucose plus 5% fetal bovine serum.
(§2) Seventy percent confluent cultures of LN18 and LN229 cells were synchronized in serum-free medium (DMEM plus 10 μM FeSO4 and 0.5% bovine serum albumin—BSA) for 48 hours and then treated with leptin and/or compounds (different doses) for 3 days. Cell numbers before and after treatment were determined by direct counting the cells with trypan blue exclusion. All assays were done in triplicate and repeated 3-6 times. The cell numbers were expressed as means±standard error. The results were statistically evaluated by Student's t-test and analysis of variance (ANOVA). Values of p<0.05 were considered statistically significant.
(§3) Stimulation of ObR-positive cells by compound (1) was evaluated. A true agonist of an ObR-positive receptor should stimulate the growth of ObR-positive cells when added alone and should not antagonize the actions of leptin in the same cells. In order to determine whether compound (1) is a true agonist, the ObR-positive, CNS-resident glioblastoma cell lines LN229 and LN18 were used. EC values for this peptide were measured without exogenous leptin present, and IC values with 12 nM leptin added.

[2] = system: ObR-positive LN18 glioblastoma cells; experiment: Cell proliferation assay, LN18 glioblastoma cells; format: cell-based; conditions: data not shown
Experimental: as §1, §2, §3

[3] = system: high-fat induced obesity (DIO) C57BL/6 mice; experiment: Mouse model of obesity and leptin resistance (DIO mice); format: in vivo; conditions: for Blood glucose level / Blood total cholesterol level: DIO mice; for resistance to treatment (weight curves): 10-day ip treatment, leptin 0.1, compound (1) 0.02 and 0.1 mg/kg/day
Experimental: Animals were sacrificed by CO2 inhalation. Livers were removed and fixed in 10% buffered formaldehyde, pH, 7.4. After 24 hour fixation, liver specimens were dehydrated in graded ethanol and placed into methyl benzoate for an hour. The specimens were then transferred to xylene and embedded into paraffin. 6-μm thick paraffin sections were deparaffinized and stained with H&E. Photomicrographs were taken by using a Zeiss light microscope equipped with a CCD camera. The final magnification of the pictures was 200-fold.
An animal model for leptin resistance was used to evaluate compounds of the invention. In this model, based on high-fat induced obesity (DIO) of normal mice, the animals are fed with a diet containing 40-60% fat and become resistant to leptin treatment (Steinberg et al., 2006, Endocrinology 147: 3906-3914; Nakagawa et al., 2003, J. Obesity 27: 557-565). Normal C57BL/6 mice were fed with regular 6% lab chow until 3 weeks of age when their diet was switched to peanuts only. Peanuts have 47-50% dry fat content, and are considered a typical high-fat food (Isleib et al., 2004, J. Agric. Food Chem. 52: 3165-3168). DIO mice develop peripheral leptin resistance after 16 days of high-fat diet (van Heek et al., 1997, J. Clin. Invest. 99:3 85-390). In this study, the mice were fed peanuts for 5 weeks. The animals had access to water and peanuts ad libitum. After 3 weeks (total age 6 weeks) a group of 6 mice remained untreated, and 4 groups received leptin or a compound of the invention.
Mice were weighed daily and received a daily single dose (around noon time) intraperitoneally with the following scheme: Group 1 (6 mice: 3 males, 3 females) —physiological solution (control); Group 2 (6 mice: 3 males, 3 females) —0.1 mg/kg/day leptin; Group 3 (4 mice: 2 males, 2 females) —0.02 mg/kg/day compound of the invention; Group 4 (6 mice: 3 males, 3 females) —0.1 mg/kg/day compound of the invention; and Group 5 (4 mice: 2 males, 2 females) —0.5 mg/kg/day compound of the invention. After 10 days of treatment, one male and one female mouse from each group were sacrificed and bled, and their livers, spleens, kidneys and brains were removed for histology and toxicity analysis.
The DIO mice were allowed to eat peanut ad libitum. They were weighed daily and received the following intraperitoneal treatment at noontime: Group 1 (6 mice: 3 males, 3 females) —physiological solution (control); Group 2 (6 mice: 3 males, 3 females) —0.1 mg/kg/day of leptin; Group 3 (4 mice: 2 males, 2 females) —0.02 mg/kg/day of compound (1); Group 4 (6 mice: 3 males, 3 females) —0.1 mg/kg/day of compound (1); and Group 5 (4 mice: 2 males, 2 females) —0.5 mg/kg/day of compound (1).

[4] = In vivo biodistribution of fluorescent-labelled peptide
Experimental: Compound (2), labeled with fluorescent dye Alexa Fluor® 680, was prepared and purified by reverse phase HPLC. 5 μg of the compound were injected intraperitoneally into anesthetized female Balb/c mice. While sleeping, the animals were placed into the fluorescence microscope chamber. Fluorescence exposure pictures were taken with a Kodak 4000MM camera set to 695 nm emission wavelength at five minute intervals afterwards for 80 min.

normal F344 male rats = experiment: Rat appetite control, intranasal administration to normal rats; format: in vivo; conditions: 0.1 mg/kg/day intranasal
Experimental: Eight 6-weeks-old male […] rats were kept on regular laboratory diet. At noon time for 10 days, the animals were weighed, turned upside down, and received 0.1 mg/kg/day of a compound of the invention ([…]) or physiological solution ([…]) dripped in 10 μL volume into their nose. On day 15, the rats were weighed and sacrificed (cervical dislocation), and bled for laboratory blood analysis. Their brains, livers, kidneys and spleens were removed and weighed.
Rats were allowed to lab chow ad libitum, and treatment lasted for 10 days with 0.1 mg/kg/day single dose of compound (1) dropped into the nose in 10 μL salt solution. Untreated control animals were administered 10 μL physiological salt solution. Results are represented in FIG. 5.

obese C57BL/6 mice = experiment: Pregnancy test after treatment of obese mice; format: in vivo; conditions: for Number of pregnancy incidents: observed 5 weeks
Source text: The remaining mice after the treatment with leptin or a compound of the invention were returned to 6% fat lab chow diet, and locked into cages in couples. […] The two successful litters were examined for growth and behavioral patterns.
Upon cessation of the weight gain assay and laboratory work, the remaining mice were returned to 6% fat lab chow diet, and locked into cages in couples to investigate whether treatment with leptin or compound (1) improved their fertility rates. […] Neither of two couples of control, untreated mice produced litters, as expected (Table 3). […] Leptin treatment somewhat improved the situation because one of the two couples produced a litter. As for the couple of mice treated with the 0.5 mg/kg/day dose of compound (1), the female became pregnant immediately and delivered 6 healthy pups in less than a month (Table 3).

C57BL/6 mice = experiment: Short chronic toxicity study in peanut-fed mice; format: in vivo; conditions: 1.5 or 4.0 mg/kg ip once daily, 4 days
Experimental: Eight C57BL/6 mice, 6 weeks of age (8 mice: 4 males, 4 females), were fed with peanut diet for 6 days. They were split in three different groups. The first group was left untreated (4 mice: 2 males, 2 females). The second group received a compound of the invention once daily intraperitoneally at 1.5 mg/kg for 4 days (2 mice: 1 male, 1 female). The third group received a compound of the invention once daily intraperitoneally at 4.0 mg/kg (2 mice: 1 male, 1 female) for 4 days. The animals were inspected daily for signs of disease or discomfort. After 5 days of treatment, the mice were weighed, sacrificed with CO2 inhalation, and bled for laboratory blood analysis. Their brains, livers, kidneys and spleens were inspected, removed and weighed.
Eight mice (4 males, 4 females) were fed with peanut diet for 6 days. After that, they were left untreated (2 males, 2 females), or received compound (1) once daily at 1.5 mg/kg (1 male, 1 female) or 4.0 mg/kg (1 male, 1 female) for 4 days.

[5] = 5 μg intraperitoneally, fluorescence imaging

## CC(=O)N[C@H]1[C@@H](O[C@H](C)[C@H](NC(=O)[C@H](CO)NC(=O)[C@@H](N)Cc2cc(I)c(O)c(I)c2)C(=O)N[C@@H](CCC(=O)O)C(=O)N[C@H](C(=O)N[C@H](C(=O)N[C@@H](C)C(=O)N[C@@H](CC(C)C)C(=O)N[C@@H](CO)C(=O)N[C@@H](CCCNC(=N)N)C(=O)NCCCCCC(N)=O)C(C)C)C(C)C)O[C@H](CO)[C@H](O)[C@@H]1O [compound (1), Tyr(I2)-Ser-Thr(α-GalNAc)-Glu-Val-Val-Ala-Leu-Ser-Arg-AcpNH2] (H-[Tyr(3,5-I2)]ST(αGalNAc)EVVALSR[Ahx]-NH2; N-terminus assumed)
[1]
  Selectivity (EC/IC): >100
[1]; listed as Compound (1)
  Selectivity (EC/IC): greater than 100
[1]; LN229 proliferation, with 12 nM leptin added
  IC100: >100 nM
[1]; LN229 proliferation, without exogenous leptin, 3 days
  EC100: <1 nM
[1]; with 12 nM leptin added
  Antagonistic properties (ICs) to leptin-induced LN229 stimulation: ≥ 100 nM
[2]
  agonistic activity: picomolar agonistic activities
[3]; 0.02 mg/kg/day ip, 10 days
  weight reduction relative to untreated controls at end of treatment: 0.5 g
[3]; 0.02 mg/kg/day ip
  Blood glucose level: 8.45 mM/L
  Blood total cholesterol level: 2.51 mM/L
[3]; 0.1 mg/kg/day ip, 10 days
  weight reduction relative to untreated controls at end of treatment: 0.6 g
[3]; 0.1 mg/kg/day ip
  Blood glucose level: 8.55 mM/L
  Blood total cholesterol level: 2.77 mM/L
[3]; 0.5 mg/kg/day ip
  blood cholesterol level reduction: 9%
  glucose level reduction: 17%
  liver fat cell content (histology): fatty cytoplasm could no longer be observed; also recorded: fat cells were completely eliminated from the liver
  Blood glucose level: 7.06 mM/L
  Blood total cholesterol level: 2.08 mM/L
[3]; 0.5 mg/kg/day ip, 10 days
  net total body weight loss: 6.5%
  relative weight loss compared to untreated mice: 1.3 g
[3]; 0.02, 0.1 and 0.5 mg/kg/day ip
  liver fat cell content, dose dependence: lowered the fatty cell content of the liver in a dose-dependent manner
[3]
  resistance to treatment (weight curves): lack of resistance to peptide treatment
[4]; inferred from labelled analogue
  BBB-penetrating ability, by inference from compound (2): good BBB-penetrating ability
Normal F344 male rats; 10 days, day 11
  weight growth less than untreated controls: 10.8 g
Normal F344 male rats; 10 days, day 14
  net total body weight (tbw) loss: 6.8%
  weight growth less than untreated controls: 11.7 g
Normal F344 male rats; at sacrifice
  average total blood cholesterol level: 1.28 mmol/L
  organ weight, brain: 1.2 g
  organ weight, kidney: 1.5 g
  organ weight, liver: 6.9 g
  organ weight, spleen: 0.42 g
Obese C57BL/6 mice; after 0.02 mg/kg/day ip
  Number of pregnancy incidents: 0
Obese C57BL/6 mice; after 0.1 mg/kg/day ip
  Number of pregnancy incidents: 0
Obese C57BL/6 mice; after 0.5 mg/kg/day ip, one couple
  healthy pups delivered: 6
Obese C57BL/6 mice; after 0.5 mg/kg/day ip
  Number of pregnancy incidents: 1
Obese C57BL/6 mice; low-dose regimen (0.02 and 0.1 mg/kg/day)
  fertility of couples: remained infertile
C57BL/6 mice
  average organ weight, brain: 0.3 g
  average organ weight, kidney (females): 0.20 g
  average organ weight, kidney (males): 0.25 g
  average organ weight, liver: 1.06 g
  average organ weight, spleen: 0.09 g
  gross necropsy: no signs of toxicity
  weight change during compound addition: Three of the 4 treated mice lost weight

## Alexa680-Tyr(I2)-Ser-Thr(α-GalNAc)-Glu-Val-Val-Ala-Leu-Ser-Arg-AcpNH2 ({Alexa680-Tyr(3,5-I2)-Ser-Thr(α-GalNAc)}-EVVALSR-{Acp-NH2}; reading uncertain) [compound (2)]
[4]; [5]
  BBB-penetrating ability: good BBB-penetrating ability
  distribution into peptide elimination organs (kidneys, liver, spleen): distributed into the usual peptide elimination organs within one hour from administration
  presence in tail, limbs and brain: also found in the tail, the limbs and the brain

## leptin: Human leptin purchased from R&D Systems; 146-amino acid neurohormone, native ObR ligand
[3]; 0.1 mg/kg/day ip
  liver fat cell content (histology): acinoperipheral regions of the liver still contained fat cells
  Blood glucose level: 5.22 mM/L
  Blood total cholesterol level: 2.47 mM/L
[3]; 0.1 mg/kg/day ip, 10 days
  weight reduction relative to untreated controls at end of treatment: 0.3 g
[3]
  resistance to treatment (weight curves): fast acquisition of resistance
Obese C57BL/6 mice; after 0.1 mg/kg/day ip
  Number of pregnancy incidents: 1
